In article PMC6792352, “Limited Chemical Structural Diversity Found to Modulate Thyroid Hormone Receptor in the Tox21 Chemical Library” (Environmental Health Perspectives, 2019):
Structures can show the parent of a compound that is named as a salt.

experiment: in vitro; conditions: rat, gh3-tre-luc cells, AC50 (uM) modified / 1000

`COC(=O)C1CC(=O)C(C(=O)OC)CC1=O` (stereo not shown) [Dimethyl succinylsuccinate] and `COC(=O)/C=C\C(=O)O` [2-Butenedioic acid (2Z)-, monomethyl ester] cannot be ordered by CC50 at 24 h: greater than 5 µM for the first, greater than 90 µM for the second.

`COCCOC` [Ethylene glycol dimethyl ether] and `CC(=O)OCC(COC(C)=O)OC(C)=O` [Triacetin] cannot be ordered by CC50 at 24 h: greater than 90 µM for the first, greater than 90 µM for the second.

Going from `Cn1sc(Cl)cc1=O` [5-Chloro-2-methyl-3(2H)-isothiazolone] to `Cc1cc(O)ccc1N` [4-Amino-m-cresol], the CC50 at 24 h falls from 65.6 µM to 29.9 µM (2.2-fold).

`Cc1cccc(Br)c1` [3-Bromotoluene] and `Cc1ccccc1Br` [2-Bromotoluene] cannot be ordered by CC50 at 24 h: greater than 90 µM for the first, greater than 90 µM for the second.

`C=C[C@]1(C)C[C@@H](OC(=O)CSCCN(CC)CC)[C@]2(C)[C@H](C)CC[C@]3(CCC(=O)[C@H]32)[C@@H](C)[C@@H]1O` [Tiamulin] and `CCC(=O)O[C@H]1[C@H](O[C@@H]2[C@@H](C)[C@H](O[C@H]3C[C@@](C)(OC)[C@@H](O)[C@H](C)O3)[C@@H](C)C(=O)O[C@H](CC)[C@@](C)(O)[C@H](O)[C@@H](C)C(=O)[C@H](C)C[C@@]2(C)O)O[C@H](C)C[C@@H]1N(C)C` [Erythromycin propionate] are within 1.5-fold of each other in CC50 at 24 h: 14.1 µM for the first, 13.1 µM for the second.

First: CCO[Si](C)(OCC)OCC [Triethoxymethylsilane]
Second: CCN(CC)CCOCCOC(=O)C(CC)(CC)c1ccccc1 [Oxeladin citrate]
The CC50 at 24 h of the first is higher: greater than 90 µM for the first, 27.1 µM for the second.

Going from `CC(CN(C)C)CN1c2ccccc2Sc2ccccc21` (stereo not shown) [Trimeprazine tartrate] to `CCOC(=O)Nc1ccc2c(c1)N(C(=O)CCN1CCOCC1)c1ccccc1S2` [Moricizine hydrochloride], the CC50 at 24 h rises from 4.36 µM to greater than 20 µM.

Compared with `CC(C)OC(=O)C(C)N(C(=O)c1ccccc1)c1ccc(F)c(Cl)c1` (stereo not shown) [Flamprop-isopropyl], `O=C(c1ccccc1)c1cccc(O)c1` [3-Hydroxybenzophenone] is higher in CC50 at 24 h: 50 µM for the first, greater than 90 µM for the second.

First: CCC(C)n1ncn(-c2ccc(N3CCN(c4ccc(OC[C@H]5CO[C@](Cn6cncn6)(c6ccc(Cl)cc6Cl)O5)cc4)CC3)cc2)c1=O (mixture of isomers) [Itraconazole]
Second: COc1ccccc1N1CCN(CC(O)COc2cccc3ccccc23)CC1 (stereo not shown) [Naftopidil]
The CC50 at 24 h of the first is 7.3-fold lower: 3.2 µM for the first, 23.4 µM for the second.

`O=[N+]([O-])c1ccccc1Nc1ccccc1` [2-Nitrodiphenylamine] and `NNC(=O)CP(=O)(c1ccccc1)c1ccccc1` [Fosenazide] cannot be ordered by CC50 at 24 h: greater than 90 µM for the first, greater than 50 µM for the second.

`Cc1ccc(S(=O)(=O)NC(=O)N[C@@H](C)Cc2ccccc2)cc1` [Tosifen] and `CC(C)CN(C[C@@H](O)[C@H](Cc1ccccc1)NC(=O)O[C@H]1CO[C@H]2OCC[C@H]21)S(=O)(=O)c1ccc(N)cc1` [Darunavir] cannot be ordered by CC50 at 24 h: greater than 50 µM for the first, greater than 50 µM for the second.

`CN(C)[C@@H]1C(=O)C(C(=O)NCN2CCCC2)=C(O)[C@@]2(O)C(=O)C3=C(O)c4c(O)cccc4[C@@](C)(O)C3C[C@@H]12` (stereo partly shown) [Rolitetracycline hydrochloride] and `OC(CCN1CCCCC1)(c1ccccc1)C1CCCCC1` (stereo not shown) [Trihexyphenidyl hydrochloride] cannot be ordered by CC50 at 24 h: greater than 50 µM for the first, greater than 50 µM for the second.

`Cc1ncc(CNC(=O)N(CCCl)N=O)c(N)n1` [Nimustine] and `CC(C)CCCCCOC(=O)COc1ccc(Cl)cc1Cl` [2,4-D isooctyl ester] cannot be ordered by CC50 at 24 h: greater than 50 µM for the first, greater than 90 µM for the second.

`O=S(=O)(O)CC(O)CCl` (stereo not shown) [Sodium 3-chloro-2-hydroxypropane-1-sulfonate] and `CCCCCCCCc1ccc(S(=O)(=O)O)cc1` [Sodium 4-octylbenzenesulfonate] cannot be ordered by CC50 at 24 h: greater than 90 µM for the first, greater than 90 µM for the second.

`O=C1OCCO1` [1,3-Dioxolan-2-one] and `O=C1CCCCCN1` [Caprolactam] cannot be ordered by CC50 at 24 h: greater than 100 µM for the first, greater than 90 µM for the second.

`NC(=O)COCCN1CCN(C(c2ccccc2)c2ccc(Cl)cc2)CC1` (stereo not shown) [Cetirizine amide dihydrochloride] and `CC(C(=O)O)c1cccc(Oc2ccccc2)c1` (stereo not shown) [Fenoprofen calcium salt dihydrate] cannot be ordered by CC50 at 24 h: 21.7 µM for the first, greater than 20 µM for the second.

`CCc1ccc(S(=O)(=O)O)cc1` [4-Ethylbenzenesulfonic acid] and `CCc1nn(C)c(C(=O)NCc2ccc(C(C)(C)C)cc2)c1Cl` [Tebufenpyrad] cannot be ordered by CC50 at 24 h: greater than 50 µM for the first, 53.4 µM for the second.

Going from `Nc1nc(NC2CC2)c2ncn([C@H]3C=C[C@@H](CO)C3)c2n1` [Abacavir] to `c1ccc2c(CCC3CCNCC3)c[nH]c2c1` [Indalpine hydrochloride], the CC50 at 24 h falls from greater than 50 µM to 18.8 µM.

Going from `CC(C)CCCCCOC(=O)CCCOc1ccc(Cl)cc1Cl` [2,4-DB-isooctyl ester] to `CCCCCCC(C)Nc1ccc(Nc2ccccc2)cc1` (stereo not shown) [N-(1-Methylheptyl)-N'-phenyl-1,4-benzenediamine], the CC50 at 24 h falls from greater than 90 µM to 35.9 µM.

`Clc1ccc(C(Cl)(Cl)Cl)cn1` [2-Chloro-5-trichloromethylpyridine] and `FC(F)(F)c1ccc(Cl)cc1Cl` [2,4-Dichlorobenzotrifluoride] cannot be ordered by CC50 at 24 h: greater than 90 µM for the first, greater than 90 µM for the second.

First: Oc1c(Br)cc(Br)c2cccnc12 [Broxyquinoline]
Second: Cc1cc2c(cc1C(F)(F)F)N(C(=O)Nc1ccc(Oc3cccnc3C)nc1)CC2 [SB243213A]
The CC50 at 24 h of the first is 2.8-fold lower: 24.9 µM for the first, 69.4 µM for the second.

`O=NN1CCCCCC1` [N-Nitrosohexamethyleneimine] and `N=C(N)c1ccc2cc(OC(=O)c3ccc(N=C(N)N)cc3)ccc2c1` [Nafamostat mesylate] cannot be ordered by CC50 at 24 h: greater than 90 µM for the first, greater than 50 µM for the second.

`C=Cc1ccc(C)cc1` [4-Methylstyrene] and `O=CC(=O)c1ccccc1` [Phenylglyoxal] cannot be ordered by CC50 at 24 h: greater than 90 µM for the first, greater than 90 µM for the second.

`CC1(C)Cc2cccc(O)c2O1` [2,3-Dihydro-2,2-dimethyl-7-benzofuranol] and `COc1cc(C[C@@H]2NCCc3cc(O)c(O)cc32)cc(OC)c1OC` [Trimethoquinol] cannot be ordered by CC50 at 24 h: greater than 100 µM for the first, greater than 50 µM for the second.

`O=C(NS(=O)(=O)/C=C/c1ccccc1)c1ccc(F)cc1Cl` [PharmaGSID_48516] and `CCO[C@@H](Cc1ccc(OCCc2ccc(OS(C)(=O)=O)cc2)cc1)C(=O)O` [Tesaglitazar] cannot be ordered by CC50 at 24 h: greater than 90 µM for the first, greater than 50 µM for the second.

`CCC(C)c1cc(C(C)(C)C)c(O)c(C(C)(C)C)c1` (stereo not shown) [4-(Butan-2-yl)-2,6-di-tert-butylphenol] and `C=CC(C)(O)CCC=C(C)C` (stereo not shown) [Linalool] cannot be ordered by CC50 at 24 h: greater than 90 µM for the first, greater than 90 µM for the second.

`CC(C)C=O` [2-Methylpropanal] and `O=[N+]([O-])C(CO)(CO)CO` [2-(Hydroxymethyl)-2-nitro-1,3-propanediol] cannot be ordered by CC50 at 24 h: greater than 90 µM for the first, greater than 90 µM for the second.

`CCCCCCCCCCCCCCCBr` [1-Bromopentadecane] and `FC(F)(Cl)C(F)(Cl)Cl` [1,1,2-Trichloro-1,2,2-trifluoroethane] cannot be ordered by CC50 at 24 h: greater than 50 µM for the first, greater than 90 µM for the second.

same assay, conditions: rat, gh3-tre-luc cells, AC50 (uM) modified / 1000, Tox21_110001=Tox21_111979; viability, 1 nM T3 present, 24 h

Work on `CCN(CC)CCOC(=O)C(C)(c1ccccc1)c1ccccc1` [Aprofene] yielded a CC50 at 24 h of 15.4 µM.

same assay, conditions: rat, gh3-tre-luc cells, AC50 (uM) modified / 1000, Tox21_110001=Tox21_200909; viability, 1 nM T3 present, 24 h

Molecule `Oc1cccc(Cl)c1Cl` [2,3-Dichlorophenol] has a CC50 at 24 h greater than 90 µM.

same assay, conditions: rat, gh3-tre-luc cells, AC50 (uM) modified / 1000, Tox21_110001=Tox21_201451; viability, 1 nM T3 present, 24 h

For `CNC(=O)N(C)c1nnc(C(C)(C)C)s1` [Tebuthiuron], the CC50 at 24 h was greater than 90 µM.

same assay, conditions: rat, gh3-tre-luc cells, AC50 (uM) modified / 1000, Tox21_110001=Tox21_201592; viability, 1 nM T3 present, 24 h

`O=C1C2(Cl)C3(Cl)C4(Cl)C(Cl)(Cl)C5(Cl)C3(Cl)C1(Cl)C5(Cl)C24Cl` (stereo not shown) [Kepone] gave a CC50 at 24 h of 11.6 µM.

same assay, conditions: rat, gh3-tre-luc cells, AC50 (uM) modified / 1000, Tox21_110001=Tox21_202368; viability, 1 nM T3 present, 24 h

For `O=Cc1cccc(Oc2ccccc2)c1` [3-Phenoxybenzaldehyde], the CC50 at 24 h was greater than 90 µM.

same assay, conditions: rat, gh3-tre-luc cells, AC50 (uM) modified / 1000, Tox21_110001=Tox21_300098; viability, 1 nM T3 present, 24 h

Molecule `O=C1C2(Cl)C3(Cl)C4(Cl)C(Cl)(Cl)C5(Cl)C3(Cl)C1(Cl)C5(Cl)C24Cl` (stereo not shown) [Kepone] has a CC50 at 24 h of 10.7 µM.

same assay, conditions: rat, gh3-tre-luc cells, AC50 (uM) modified / 1000, Tox21_110001=Tox21_301059; viability, 1 nM T3 present, 24 h

`CCOP(=O)(SC(C)CC)N1CCSC1=O` (stereo not shown) [Fosthiazate] showed a CC50 at 24 h greater than 90 µM.

same assay, conditions: rat, gh3-tre-luc cells, AC50 (uM) modified / 1000, Tox21_110001=Tox21_301429; viability, 1 nM T3 present, 24 h

Molecule `ClC1=C(Cl)[C@]2(Cl)[C@H]3[C@H]([C@H]4C=C[C@@H]3C4)[C@@]1(Cl)C2(Cl)Cl` [Isodrin] has a CC50 at 24 h of 66.4 µM.
